Laboratory results as given in USRE46873E1, “Multi-targeted RNAi therapeutics for scarless wound healing of skin” (Sirnaomics, Inc., priority 2007, dated 2018).
Bridges are numbered along the chain shown (N, C = ends). Roman numbers before positions name the chains, in order. Where no end group is shown, it is not given here.

Tests used:
lung, liver, and kidney = experiment: In vivo toxicity of HK peptides after intravenous administration; conditions: mice, 1000 μg, 24 h after injection; preliminary studies
Experimental: H2K4b, had the strongest antifungal effect reducing growth of C. albicans to nearly 40% at 37.5 μg/ml (3.4 μM) and 85% at 50 μg/ml (4.5 μM). […] Relative to in vitro toxicity, the in vivo toxicity differences among these peptides are more striking. […] Of the three organs examined, the kidney appears to be the most sensitive to these peptides. Relative to H2K4b, a decrease in cationic charge in the terminal branches of H3K4b and H3K(G)K4b may, in part, account for their reduced toxicity in vitro and in vivo; the reduction in charge may decrease their interaction with negatively charged cell membranes. With eight additional glycines, H3K(G)4b polymer has a reduced charge per total number of amino acids relative to H3K4b. Because there are five lysines in each terminal arm of H3K(G)4b and H3K4b, however, we doubt that minimal charge differences readily explain the reduced toxicity of H3K(G)4b relative to H3K4b. An alternative possibility is that glycines may disrupt alpha helices in the terminal branches, thereby enhancing the flexibility of the polymer and allowing enzymatic degradation. Several secondary structure programs for peptides predict a marked difference in the alpha helical content between a glycine containing peptide, H3K(G)4b, and the non-glycine containing peptides, H2K4b and H3K4b.

Cox-2 mRNA in PC3 cells = experiment: siRNA transfection of PC3 cells, RT-PCR of Cox-2; assay type: cell-based; conditions: human PC3 cells
Experimental: (§1) • 4. Human prostate carcinoma cell-PC3 was used for detection of the gene expression knockdown. A series of standard transfection experiments were carried out using the protocol provided by the vendor (Invitrogen) with the siRNA duplexes identified in step 2 accordingly. • 5. Total RNA samples were isolated and subjected to RT-PCR analysis using the respective PCR primers identified in step 3 above.
(§2) Among ten in silico designed 25 mer siRNA sequences, we first pick three for testing. Before testing those siRNA oligos (synthesized by Qiagen) in the corresponding cells, such as human PC-3 cell (a bone metastasis of a […] prostatic adenocarcinoma), we first use RT-PCR to survey the presence of the target gene expression in the total RNA samples (FIG. 14). […] We further surveyed the expression of these three genes in the mouse C166 cell. […] Therefore, we can transfect the three selected siRNA oligos targeting a particular gene into the corresponding cell and then evaluate their gene silencing potential, followed by total RNA isolation and RT-PCR analysis. Three doses were used for each transfection on the 6-well plate: 0.5 ug, 1 ug and 2 ug, with Lipo2000 following the vendor's direction. […] The RT-PCR products were also subjected to the gel electrophoreses and quantification. […]

Hoxb13 mRNA in PC3 cells = experiment: siRNA transfection of PC3 cells, RT-PCR of Hoxb13; assay type: cell-based; conditions: human PC3 cells
Experimental: as §1, §2

TGF-β1 mRNA in PC3 cells = experiment: siRNA transfection of PC3 cells, RT-PCR of TGF-beta1; assay type: cell-based; conditions: human PC3 cells
Experimental: as §1, §2

I: KHHHKHHHKHHHKHHHKKKK-NH2 / II: KHHHKHHHKHHHKHHHK / III: KHHHKHHHKHHHKHHHK / IV: KHHHKHHHKHHHKHHHK (amide I:18-IV:C, I:19-III:C, I:20-II:C) [H3K4b]
organ toxicity (lung, liver, and kidney): minimally toxic to the kidney

hmCX-1: 25-mer siRNA duplex targeting human and mouse COX-2; sense 5′-GGUCUGGUGCCUGGUCUGAUGAUGU-3′ (SEQ ID NO: 9) (antisense ACAUCAUCAGACCAGGCACCAGACC; listed as RNA, further chemistry not given here)
Cox-2 gene expression / silencing activity (RT-PCR) (Cox-2 mRNA in PC3 cells): potent

hmHX-1: 25-mer siRNA duplex targeting human and mouse HoxB13; sense 5′-GGUGGCUGGAACAGCCAGAUGUGUU-3′ (SEQ ID NO: 7) (antisense AACACAUCUGGCUGUUCCAGCCACC; listed as RNA, further chemistry not given here)
Hoxb13 gene expression / silencing activity (RT-PCR) (Hoxb13 mRNA in PC3 cells): potent

hmTF-2: 25-mer siRNA duplex targeting human and mouse TGF-β1; sense 5′-CCCAAGGGCUACCAUGCCAACUUCU-3′ (SEQ ID NO: 11) (antisense AGAAGUUGGCAUGGUAGCCCUUGGG; listed as RNA, further chemistry not given here)
TGF-β1 gene expression / silencing activity (RT-PCR) (TGF-β1 mRNA in PC3 cells): potent
